Laboratory results taken from PubChem BioAssay AID1963840 (Molecular Pharmacology Branch, DTP, NCI, 2024).
pIC50: −log10 of the molar value.

Test system: 695427-040-R-J1-PDC complex spheroid viability
Test: Anticancer human tumor 695427-040-R-J1-PDC patient-derived colon adenocarcinoma cell line growth inhibition [POLQ]
Details: for pIC50: curve of first compound; for viability, T/C: stronger effect = lower value; active = viability on the fitted dose curve at most 10% of control; inactive = the rest
In short: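 Patient-derived tumour cells were co-cultured with HUVEC and mesenchymal stem cells as multicellular spheroids at 37 °C. They were treated with POLQ inhibitors (novobiocin, ART-558, RP6685) alone or combined with other agents. Top concentrations were at or near clinical Cmax (otherwise 10 microM; SN-38 at 1 microM), decreasing in half-log steps.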

[1] = second compound 0.0316 µM, first compound 0.0316 µM
[2] = second compound 0.0316 µM, first compound 0.1 µM
[3] = second compound 0.0316 µM, first compound 0.316 µM
[4] = second compound 0.0316 µM, first compound 1 µM
[5] = second compound 0.0316 µM, first compound 3.16 µM
[6] = second compound 0.0316 µM, first compound 10 µM
[7] = second compound 0.1 µM, first compound 0.0316 µM
[8] = second compound 0.1 µM, first compound 0.1 µM
[9] = second compound 0.1 µM, first compound 0.316 µM
[10] = second compound 0.1 µM, first compound 1 µM
[11] = second compound 0.1 µM, first compound 3.16 µM
[12] = second compound 0.1 µM, first compound 10 µM
[13] = second compound 0.316 µM, first compound 0.0316 µM
[14] = second compound 0.316 µM, first compound 0.1 µM
[15] = second compound 0.316 µM, first compound 0.316 µM
[16] = second compound 0.316 µM, first compound 1 µM
[17] = second compound 0.316 µM, first compound 3.16 µM
[18] = second compound 0.316 µM, first compound 10 µM
[19] = second compound 1 µM, first compound 0.0316 µM
[20] = second compound 1 µM, first compound 0.1 µM
[21] = second compound 1 µM, first compound 0.316 µM
[22] = second compound 1 µM, first compound 1 µM
[23] = second compound 1 µM, first compound 3.16 µM
[24] = second compound 1 µM, first compound 10 µM
[25] = second compound 3.16 µM, first compound 0.0316 µM
[26] = second compound 3.16 µM, first compound 0.1 µM
[27] = second compound 3.16 µM, first compound 0.316 µM
[28] = second compound 3.16 µM, first compound 1 µM
[29] = second compound 3.16 µM, first compound 3.16 µM
[30] = second compound 3.16 µM, first compound 10 µM
[31] = second compound 10 µM, first compound 0.0316 µM
[32] = second compound 10 µM, first compound 0.1 µM
[33] = second compound 10 µM, first compound 0.316 µM
[34] = second compound 10 µM, first compound 1 µM
[35] = second compound 10 µM, first compound 3.16 µM
[36] = second compound 10 µM, first compound 10 µM
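Also: spheroids exposed to compounds for seven days.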
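For viability, T/C in this document: 100% = DMSO vehicle control viability.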

CC1COCCN1c1cc(C2(O)CC3CCC(C2)O3)c2cnn(-c3ccn[nH]3)c2n1 (stereo unspecified) + COC1C(OC(N)=O)C(O)C(Oc2ccc3c(O)c(NC(=O)c4ccc(O)c(CC=C(C)C)c4)c(=O)oc3c2C)OC1(C)C
5.39: pIC50 (second compound 1 µM) | pIC50 (second compound 10 µM)
5.33: pIC50 (second compound 0.1 µM)
5.40: pIC50 (second compound 0.0316 µM)
5.23: pIC50 (second compound 0.316 µM)
inactive: viability, T/C [1] 105% | viability, T/C [2] 86.8% | viability, T/C [3] 75.3% | viability, T/C [4] 64.9% | viability, T/C [5] 50.9% | viability, T/C [6] 41.9% | viability, T/C [7] 116% | viability, T/C [8] 88.6% | viability, T/C [9] 79.1% | viability, T/C [10] 61.5% | viability, T/C [11] 52.6% | viability, T/C [12] 44.9% | viability, T/C [13] 99.9% | viability, T/C [14] 84.7% | viability, T/C [15] 83.7% | viability, T/C [16] 71.2% | viability, T/C [17] 54.3% | viability, T/C [18] 44.6% | viability, T/C [19] 97.9% | viability, T/C [20] 91% | viability, T/C [21] 75.9% | viability, T/C [22] 64% | viability, T/C [23] 51% | viability, T/C [24] 45% | viability, T/C [25] 102% | viability, T/C [26] 91.2% | viability, T/C [27] 80% | viability, T/C [28] 62.6% | viability, T/C [29] 52.4% | viability, T/C [30] 45.3% | viability, T/C [31] 129% | viability, T/C [32] 91.8% | viability, T/C [33] 77.4% | viability, T/C [34] 63.9% | viability, T/C [35] 50.3% | viability, T/C [36] 44.6%
5.35: pIC50 (second compound 3.16 µM)

CCCS(=O)(=O)Nc1ccc(F)c(C(=O)c2c[nH]c3ncc(-c4ccc(Cl)cc4)cc23)c1F + Nc1ccc(C#CCN(C(=O)Cc2ncc(C(F)(F)F)cc2C(F)(F)F)c2ccc(F)cc2)nn1
inactive: viability, T/C [1] 101% | viability, T/C [2] 100% | viability, T/C [3] 102% | viability, T/C [4] 111% | viability, T/C [5] 117% | viability, T/C [6] 88.8% | viability, T/C [7] 112% | viability, T/C [8] 108% | viability, T/C [9] 105% | viability, T/C [10] 106% | viability, T/C [11] 113% | viability, T/C [12] 87.1% | viability, T/C [13] 100% | viability, T/C [14] 108% | viability, T/C [15] 107% | viability, T/C [16] 102% | viability, T/C [17] 106% | viability, T/C [18] 85.4% | viability, T/C [19] 103% | viability, T/C [20] 99.9% | viability, T/C [21] 107% | viability, T/C [22] 102% | viability, T/C [23] 110% | viability, T/C [24] 81.7% | viability, T/C [25] 109% | viability, T/C [26] 100% | viability, T/C [27] 103% | viability, T/C [28] 107% | viability, T/C [29] 111% | viability, T/C [30] 88.8% | viability, T/C [31] 95.1% | viability, T/C [32] 92.8% | viability, T/C [33] 110% | viability, T/C [34] 95.3% | viability, T/C [35] 97.2% | viability, T/C [36] 85.7%
< 5.00: pIC50 (second compound 0.0316 µM) | pIC50 (second compound 0.1 µM) | pIC50 (second compound 0.316 µM) | pIC50 (second compound 1 µM) | pIC50 (second compound 3.16 µM) | pIC50 (second compound 10 µM)

O=c1[nH]cc(F)c(=O)[nH]1 + Cc1cccc(N(C)C(=O)C2C(O)CCN2c2nc(C)cc(C(F)(F)F)c2C#N)c1
inactive: viability, T/C [1] 105% | viability, T/C [2] 94.5% | viability, T/C [3] 95.2% | viability, T/C [4] 98.1% | viability, T/C [5] 106% | viability, T/C [6] 98.2% | viability, T/C [7] 106% | viability, T/C [8] 102% | viability, T/C [9] 102% | viability, T/C [10] 101% | viability, T/C [11] 109% | viability, T/C [12] 97% | viability, T/C [13] 112% | viability, T/C [14] 102% | viability, T/C [15] 99.1% | viability, T/C [16] 104% | viability, T/C [17] 101% | viability, T/C [18] 99.5% | viability, T/C [19] 105% | viability, T/C [20] 100% | viability, T/C [21] 108% | viability, T/C [22] 101% | viability, T/C [23] 93% | viability, T/C [24] 88.4% | viability, T/C [25] 96% | viability, T/C [26] 103% | viability, T/C [27] 101% | viability, T/C [28] 97.4% | viability, T/C [29] 101% | viability, T/C [30] 103% | viability, T/C [31] 90.6% | viability, T/C [32] 94.8% | viability, T/C [33] 87.5% | viability, T/C [34] 96.3% | viability, T/C [35] 92.8% | viability, T/C [36] 84.8%
< 5.00: pIC50 (second compound 0.0316 µM) | pIC50 (second compound 0.1 µM) | pIC50 (second compound 0.316 µM) | pIC50 (second compound 1 µM) | pIC50 (second compound 3.16 µM) | pIC50 (second compound 10 µM)
